Drawing on patent US9126976B2 (Merck Sharp & Dohme Corp., priority 2011, dated 2015), this text covers IC50 for 33 compounds.

For one experiment, the target named is CETP (Homo sapiens (Human), UniProt P11597). In words: Scintillation Proximity Assay (SPA) for CETP activity. The class given is biochemical. Conditions: Table 1, read-out: IC50. The procedure: Protocol: Scintillation Proximity Assay (SPA) for CETP Activity
CETP, sequence (P11597 18-493): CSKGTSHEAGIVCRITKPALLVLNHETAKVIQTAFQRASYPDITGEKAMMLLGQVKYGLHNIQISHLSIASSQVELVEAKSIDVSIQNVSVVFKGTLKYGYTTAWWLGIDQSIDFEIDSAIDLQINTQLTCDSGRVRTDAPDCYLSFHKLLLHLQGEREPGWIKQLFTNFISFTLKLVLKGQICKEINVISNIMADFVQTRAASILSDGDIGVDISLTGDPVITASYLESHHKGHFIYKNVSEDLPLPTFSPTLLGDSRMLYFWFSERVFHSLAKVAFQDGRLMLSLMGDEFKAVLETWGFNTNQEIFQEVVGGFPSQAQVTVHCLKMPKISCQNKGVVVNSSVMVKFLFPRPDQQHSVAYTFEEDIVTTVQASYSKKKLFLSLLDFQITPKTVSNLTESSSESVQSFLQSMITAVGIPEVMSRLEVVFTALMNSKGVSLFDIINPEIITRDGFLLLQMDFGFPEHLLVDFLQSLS
First, low density lipoprotein (LDL) (Meridian) was biotinylated by incubating LDL with biotin for 1 hour on ice, after which it was dialyzed to remove free biotin. Then compounds at varying concentrations were incubated with 15 nM CETP (reagent production group, In Vitro Pharmacology, MRL Rahway) and 50 ug/ml of the biotinylated LDL in 50 mM HEPES, 150 mM NaCl, pH 7.4, for 1 hour at 37° C. The reaction was started by adding 3H-cholesterol ester high density lipoprotein (HDL) (American Radiochemicals Corp) at a concentration of ˜0.6 nM. The reaction proceeded for 2 hours at 37° C., after which time it was quenched by the addition of 12% acetic acid. PVT streptavadin-coated scintillation proximity beads, which had been brought to room temperature, were then added at a concentration of 4 mg/ml. The assay was then mixed and counted after one half hour in a Microbeta plate reader.
Turning to `O[C@H](CN1c2ccccc2N(Cc2cccc(OC(F)(F)F)c2)C[C@H]1c1ccc2c(c1)OCCO2)C(F)(F)F` [Example 51], the 50% inhibitory concentration (IC50) stood at 209 nM.
On the same count and under the same terms, with `Cc1ccc([C@@H]2CN(Cc3cccc(OC(F)(F)F)c3)c3ccccc3N2C[C@@H](O)C(F)(F)F)cc1` [Example 53] the figure was 56 nM.
For the compound `Cc1cccc(CN2C[C@@H](c3cccc(C(F)(F)F)c3)N(C[C@@H](O)C(F)(F)F)c3ccccc32)n1` [Example 44], the IC50 came to 460 nM.
Consider `O[C@H](CN1c2ccccc2N(Cc2ccc(Cl)cc2)C[C@H]1c1cccc(C(F)(F)F)c1)C(F)(F)F` [Example 39, (2R)-3-(4-(4-chlorobenzyl)-2-(3-(trifluoromethyl)phenyl)-3,4-dihydroquinoxalin-1(2H)-yl)-1,1,1-trifluoropropan-2-ol], for which the IC50 amounted to 548 nM.
Turning to `Cc1ccccc1CN1C[C@@H](c2cccc(C(F)(F)F)c2)N(C[C@@H](O)C(F)(F)F)c2ccccc21` [Example 33, (R)-3-((R)-4-(2-methylbenzyl)-2-(3-(trifluoromethyl)phenyl)-3,4-dihydroquinoxalin-1(2H)-yl)-1,1,1-trifluoro propan-2-ol], the concentration for half-maximal inhibition (IC50) worked out at 428 nM.
Regarding `O[C@H](CN1c2ccccc2N(Cc2cc(F)cc(C(F)(F)F)c2)C[C@H]1c1ccccc1)C(F)(F)F` [Example 29, (R)-3-((R)-4-(3-fluoro-5-(trifluoromethyl)benzyl)-2-phenyl-3,4-dihydroquinoxalin-1(2H)-yl)-1,1,1-trifluoropropan-2-ol], the IC50 stood at 105 nM.
Regarding `O[C@H](CN1c2ccccc2N(Cc2cc(Cl)cc(Cl)c2)C[C@H]1c1cccc(C(F)(F)F)c1)C(F)(F)F` [Example 32, (R)-3-((R)-4-(3,5-dichlorobenzyl)-2-(3-(trifluoromethyl)phenyl)-3,4-dihydroquinoxalin-1(2H)-yl)-1,1,1-trifluoro propan-2-ol], the IC50 came out at 12 nM.
The same measure, in the same setting: with `O[C@H](CN1c2ccccc2N(Cc2cccc(OC(F)(F)F)c2)C[C@H]1c1ccc(Cl)cc1)C(F)(F)F` [Example 49] the figure was 20 nM.
Same read-out and setting: with `O[C@H](CN1c2ccccc2N(Cc2cccc(Cl)c2Cl)C[C@H]1c1cccc(C(F)(F)F)c1)C(F)(F)F` [Example 34, (R)-3-((R)-4-(2,3-dichlorobenzyl)-2-(3-(trifluoromethyl)phenyl)-3,4-dihydroquinoxalin-1(2H)-yl)-1,1,1-trifluoro propan-2-ol] the figure was 169 nM; with `O[C@H](CN1c2ccccc2N(Cc2cccc(OC(F)(F)F)c2)C[C@H]1c1ccc(F)cc1)C(F)(F)F` [Example 52], 682 nM; with `CCc1cc(CN2C[C@@H](c3cccc(C(F)(F)F)c3)N(C[C@@H](O)C(F)(F)F)c3ccccc32)ccc1Cl` [Example 42, (2R)-3-(4-(4-chloro-3-ethylbenzyl)-2-(3-(trifluoromethyl)phenyl)-3,4-dihydroquinoxalin-1(2H)-yl)-1,1,1-trifluoropropan-2-ol], 45.1 nM.
`COc1ccc([C@@H]2CN(Cc3cccc(OC(F)(F)F)c3)c3ccccc3N2C[C@@H](O)C(F)(F)F)cc1` [Example 54]: the IC50 worked out at 69 nM.
Same read-out and setting: with `O[C@H](CN1c2ccccc2N(Cc2c(Cl)cccc2Cl)C[C@H]1c1cccc(C(F)(F)F)c1)C(F)(F)F` [Example 35, (R)-3-((R)-4-(2,6-dichlorobenzyl)-2-(3-(trifluoromethyl)phenyl)-3,4-dihydroquinoxalin-1(2H)-yl)-1,1,1-trifluoro propan-2-ol] the figure was 1160 nM.
With `COc1cc2ccc([C@@H]3CN(Cc4cccc(OC(F)(F)F)c4)c4ccccc4N3C[C@@H](O)C(F)(F)F)cc2cc1OC` [Example 50], the IC50 was 193 nM.
`O[C@H](CN1c2ccccc2N(Cc2cccc(C(F)(F)F)c2)C[C@H]1c1cccc(C(F)(F)F)c1)C(F)(F)F` [Example 40, (2R)-1,1,1-trifluoro-3-(4-(3-(trifluoromethyl)benzyl)-2-(3-(trifluoromethyl)phenyl)-3,4-dihydroquinoxalin-1(2H)-yl)propan-2-ol]: the IC50 was found to be 57.1 nM.
Same read-out and setting: with `Cc1ccc(C(F)(F)F)cc1CN1C[C@@H](c2cccc(C(F)(F)F)c2)N(C[C@@H](O)C(F)(F)F)c2ccccc21` [Example 43, (2R)-1,1,1-trifluoro-3-(4-(2-methyl-5-(trifluoromethyl)benzyl)-2-(3-(trifluoromethyl)phenyl)-3,4-dihydroquinoxalin-1(2H)-yl)propan-2-ol] the figure was 270 nM.

The experiment is the same for the next values; noted with them: Table 2, read-out: IC50 SPA.
In the case of `O[C@H](CN1c2ccccc2N(Cc2ccnc(N3CCOCC3)c2)C[C@H]1c1cccc(C(F)(F)F)c1)C(F)(F)F` [Example 62], the IC50 worked out at 326 nM.
`O[C@H](CN1c2ccccc2N(Cc2cccc(OC(F)(F)F)c2)CC1c1cccc(-c2ccccc2)c1)C(F)(F)F` (stereo partly drawn) [Example 69]: the IC50 was determined as 163 nM.
As to `O[C@H](CN1c2ccccc2N(CC2CCOCC2)C[C@H]1c1cccc(OC(F)(F)F)c1)C(F)(F)F` [Example 67], the IC50 turned out to be 29 nM.
As to `O[C@H](CN1c2c(ccc(F)c2F)N(Cc2cccc(OC(F)(F)F)c2)CC1c1cccc(C(F)(F)F)c1)C(F)(F)F` (stereo partly drawn) [Example 65], the IC50 turned out to be 157 nM.
With `O[C@H](CN1c2ccccc2N(Cc2cccc(OC(F)(F)F)c2)CC1c1ccc(-c2ccccc2)cc1)C(F)(F)F` (stereo partly drawn) [Example 68], the IC50 came out at 25 nM.
Regarding `O[C@H](CN1c2ccccc2N(CC2=CCCCC2)C[C@H]1c1cccc(OC(F)(F)F)c1)C(F)(F)F` [Example 66], the concentration for half-maximal inhibition (IC50) worked out at 8 nM.

Still in this experiment, the particulars now being: read-out: SPA IC50.
With `COC(=O)c1cccc([C@@H]2CN(Cc3cccc(OC(F)(F)F)c3)c3ccccc3N2C[C@@H](O)C(F)(F)F)c1` [Example 16], the IC50 stood at 27 nM.
On to `O[C@H](CN1c2ccccc2N(Cc2cccc(OC(F)(F)F)c2)C[C@H]1c1ccc(C(F)(F)F)nc1)C(F)(F)F` [Example 26], for which the half-inhibitory concentration (IC50) turned out to be 24 nM.
Consider `O[C@H](CN1c2ccccc2N(Cc2cccc(OC(F)(F)F)c2)C[C@H]1c1cccc(C(F)(F)F)c1)C(F)(F)F` [Example 10], for which the concentration for half-maximal inhibition (IC50) worked out at 9 nM.
The same measure, in the same setting: with `O[C@H](CN1c2ccccc2N(Cc2cccc(OC(F)(F)F)c2)C[C@H]1c1cc(C(F)(F)F)cc(C(F)(F)F)c1)C(F)(F)F` [Example 25] the figure was 770 nM.
Same read-out and setting: with `COc1cccc([C@@H]2CN(Cc3cccc(OC(F)(F)F)c3)c3ccccc3N2C[C@@H](O)C(F)(F)F)c1` [Example 20] the figure was 78 nM.
As for `O[C@H](CN1c2ccccc2N(Cc2cccc(OC(F)(F)F)c2)C[C@H]1c1cccnc1)C(F)(F)F` [Example 22], the IC50 worked out at 258 nM.
In the case of `N#Cc1cccc([C@@H]2CN(Cc3cccc(OC(F)(F)F)c3)c3ccccc3N2C[C@@H](O)C(F)(F)F)c1` [Example 24], the IC50 turned out to be 98 nM.
The same measure, in the same setting: with `C[C@@H](c1cccc(C(F)(F)F)c1)N1C[C@@H](c2cccc(C(F)(F)F)c2)N(C[C@@H](O)C(F)(F)F)c2ccccc21` [Example 12] the figure was 28 nM; with `C[C@@H](c1ccccc1)N1C[C@@H](c2cccc(C(F)(F)F)c2)N(C[C@@H](O)C(F)(F)F)c2ccccc21` [Example 14], 1460 nM; with `Cc1cc([C@@H]2CN(Cc3cccc(OC(F)(F)F)c3)c3ccccc3N2C[C@@H](O)C(F)(F)F)n(C)n1` [Example 28], 390 nM.
For `C[C@H](c1cccc(C(F)(F)F)c1)N1C[C@@H](c2cccc(C(F)(F)F)c2)N(C[C@@H](O)C(F)(F)F)c2ccccc21` [Example 13, (R)-1,1,1-trifluoro-3-((R)-2-(3-(trifluoromethyl)phenyl-4-((R)-1-(3-trifluoromethyl)phenyl)ethyl)-3,4-dihydroquinoxalin-1(2H)-yl)propan-2-ol], the IC50 is 10 nM.
